{"source": "patent US20240408099A1", "about": "“COMBINATION […] OF KRAS G12D INHIBITORS WITH Pan ErbB FAMILY INHIBITORS” (MIRATI THERAPEUTICS, INC., priority 2021, published 2024)", "key": {"GP2D cells": {"test_system": "GP2D cells", "experiment": "GP2D TGI MDS 200108-807 colorectal cancer xenograft, tumor volumes", "format": "in vivo, nude/nude mice", "conditions": "for Average Tumor Volumes: 30 mg/kg BID Daily", "protocol": "(§1) Immunocompromised nude/nude mice are inoculated in the right hind flank with cells harboring a KRas G12D mutation. When tumor volumes reach between 200-400 mm^3 in size, the mice are divided into four to five groups of 5 mice each. The first group is administered vehicle only. […] The fourth or last groups are administered the single agent dose of the KRas G12D inhibitor using the twice daily schedule and/or the 2 sequential days followed by 5 days off schedule in combination with the single agent dose of one of the EGFR inhibitors. […] Tumor volumes are measured using a caliper every two-three days and tumor volumes are calculated by the formula: […].\n(§2) 20 to 30 nude/nude mice per study were inoculated in the right hind limb with 5×10^6 LS180 cells, AsPC-1 cells, GP2D cells, Panc 02.03 cells, SW1990 cells, or SNU-1033 cells.\nExperimental Procedures. 20 nude/nude mice were inoculated with GP2D cells in the right hind flank. When the tumors reached ˜300 mm^3 four treatment groups were established with five mice per group."}, "LS180 cells": {"test_system": "LS180 cells", "experiment": "LS180 colon cancer xenograft, tumor volumes", "format": "in vivo, nude/nude mice", "conditions": "for tumor growth inhibition: 30 mg/kg BID, single agent, Day 15", "protocol": "as §1, §2\nExperimental Procedures. 25 nude/nude mice were inoculated with LS180 cells in the right hind flank. When the tumors reached ˜250 mm^3 five treatment groups were established with five mice per group."}}}
{"molecule": "C#Cc1c(F)ccc2cc(O)cc(-c3ncc4c(N5C[C@H]6CC[C@@H](C5)N6)nc(OC[C@@]56CCCN5C[C@H](F)C6)nc4c3F)c12", "note": "[MRTX1133, 4-(4-((1R,5S)-3,8-diazabicyclo[3.2.1]octan-3-yl)-8-fluoro-2-(((2R,7aS)-2-fluorohexahydro-1H-pyrrolizin-7a-yl)methoxy)pyrido[4,3-d]pyrimidin-7-yl)-5-ethynyl-6-fluoronaphthalen-2-ol]", "values": [{"measurement": "Average Tumor Volumes", "setting": "GP2D cells; Study Day 2", "value": 341.3, "unit": "mm^3"}, {"measurement": "Average Tumor Volumes", "setting": "GP2D cells; Study Day 6", "value": 282.98, "unit": "mm^3"}, {"measurement": "Average Tumor Volumes", "setting": "GP2D cells; Study Day 9", "value": 237.18, "unit": "mm^3"}, {"measurement": "Average Tumor Volumes", "setting": "GP2D cells; Study Day 13", "value": 244.1, "unit": "mm^3"}, {"measurement": "Average Tumor Volumes", "setting": "GP2D cells; Study Day 16", "value": 198.725, "unit": "mm^3"}, {"measurement": "Average Tumor Volumes", "setting": "GP2D cells; Study Day 20", "value": 288.05, "unit": "mm^3"}, {"measurement": "Average Tumor Volumes", "setting": "GP2D cells; Study Day 23", "value": 339, "unit": "mm^3"}, {"measurement": "Average Tumor Volumes", "setting": "GP2D cells; Study Day 27", "value": 385.85, "unit": "mm^3"}, {"measurement": "Average Tumor Volumes", "setting": "GP2D cells; Study Day 30", "value": 394.05, "unit": "mm^3"}, {"measurement": "tumor growth inhibition", "setting": "GP2D cells; 30 mg/kg BID daily, single agent, Day 30", "value": 96, "unit": "%"}, {"measurement": "Average Tumor Volumes", "setting": "LS180 cells; 30 mg/kg BID 2x/week, Study Day 1", "value": 272.338, "unit": "mm^3"}, {"measurement": "Average Tumor Volumes", "setting": "LS180 cells; 30 mg/kg BID 2x/week, Study Day 4", "value": 570.528, "unit": "mm^3"}, {"measurement": "Average Tumor Volumes", "setting": "LS180 cells; 30 mg/kg BID 2x/week, Study Day 8", "value": 1134.668, "unit": "mm^3"}, {"measurement": "Average Tumor Volumes", "setting": "LS180 cells; 30 mg/kg BID 2x/week, Study Day 11", "value": 1439.99, "unit": "mm^3"}, {"measurement": "Average Tumor Volumes", "setting": "LS180 cells; 30 mg/kg BID 2x/week, Study Day 15", "value": 1899.832, "unit": "mm^3"}, {"measurement": "Average Tumor Volumes", "setting": "LS180 cells; 30 mg/kg BID Daily, Study Day 1", "value": 268.94, "unit": "mm^3"}, {"measurement": "Average Tumor Volumes", "setting": "LS180 cells; 30 mg/kg BID Daily, Study Day 4", "value": 418.808, "unit": "mm^3"}, {"measurement": "Average Tumor Volumes", "setting": "LS180 cells; 30 mg/kg BID Daily, Study Day 8", "value": 593.71, "unit": "mm^3"}, {"measurement": "Average Tumor Volumes", "setting": "LS180 cells; 30 mg/kg BID Daily, Study Day 11", "value": 808.808, "unit": "mm^3"}, {"measurement": "Average Tumor Volumes", "setting": "LS180 cells; 30 mg/kg BID Daily, Study Day 15", "value": 1197.106, "unit": "mm^3"}, {"measurement": "tumor growth inhibition", "setting": "LS180 cells; daily administration", "value": 45, "unit": "%"}, {"measurement": "tumor growth inhibition", "setting": "LS180 cells; twice per week administration", "value": 4, "unit": "%"}]}
